Among the data in patent US20060135483A1, “Oxygen/nitrogen heterocycle inhibitors of tyrosine phosphatases” (priority 2004, published 2006) are IC50 and melting point values, retold here.

pIC50: −log10 of the molar value.

Series [1] addresses T1, PTP-1B (Homo sapiens, UniProt P18031).
T1 construct: PTP-1B (purified, 1 mg/mL) as a 1:250 dilution
T1 sequence (P18031 1-321 limits assumed): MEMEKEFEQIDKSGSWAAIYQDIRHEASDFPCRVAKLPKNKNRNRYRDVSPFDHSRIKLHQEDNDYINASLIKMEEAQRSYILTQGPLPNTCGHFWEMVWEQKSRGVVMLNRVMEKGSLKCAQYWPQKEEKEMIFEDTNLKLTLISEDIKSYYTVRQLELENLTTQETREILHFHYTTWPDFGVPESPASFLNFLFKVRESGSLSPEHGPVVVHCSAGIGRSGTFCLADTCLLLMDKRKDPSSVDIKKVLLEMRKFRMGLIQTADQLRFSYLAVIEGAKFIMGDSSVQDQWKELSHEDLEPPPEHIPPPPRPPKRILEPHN
Briefly: pNPP assay for tyrosine phosphatase inhibitory activity. Format: biochemical. The following applies: pNPP substrate 10 mM, 30° C., 10 minutes, absorbance at 405 nm. The procedure: The compounds provided herein are evaluated for biological activity as inhibitors of PTP-1B using, for example, a pNPP assay. Such an assay can be used to screen compounds for tyrosine phosphatase inhibitory activity as shown in Example 39.
A 5× stock of pNPP (p-nitrophenol phosphate) substrate is prepared as 50 mM pNPP in assay buffer. Various tyrosine phosphatase solutions can be prepared as follows: • PTP-1B (purified, 1 mg/mL) as a 1:250 dilution (to a final concentration of 4:g/mL); • TC-PTP (NEB, 1000 units in 100:L) as a 1:50 dilution (to a final concentration of 2 U/10:L (4:g/mL)); • CD45 (Calbiochem, 20:g, 400 units in 100: L) as a 1 :50 dilution (to a final concentration of 0.8 U/10:L (4:g/mL)); • LAR (NEB, 1000 units in 200:L) as a 1:75 dilution (to a final concentration of 0.7 U/10:L (4:g/mL)); and • PTP-β (UBI, #14-350, 10,000 units, 40:g/571:L) as a 1:17.5 dilution (to a final concentration of 10 U/10:L (4:g/mL));
The compound to be tested is prepared as 1:16.7 and 1:50 dilutions from stock in a total volume of 1 00:M DMSO to give final concentrations of 626 and 200:M. The reaction mixtures are prepared in a 96-well microtiter plate (on ice) as 55:L assay buffer, 5:L of the diluted compound (to a final concentration of 31.3 and 10:M), 20:L of the pNPP substrate solution (to a final concentration of 10 mM) and 20:L PTPase in assay buffer. The reactants are mixed well, the plate placed in a water bath at 30° C. and incubated for 10 minutes. The reaction is then terminated by adding 1 OO:L of 2M K2CO3 per well, and the absorbance is measured at 405 nm by conventional means.
Unless otherwise indicated, this assay was used to determine activity for the selected compounds whose activity is recorded in Table 1 and Table 2.

`CS(=O)(=O)c1ccc(-c2cnc(N(Cc3ccc(C(F)(F)P(=O)(O)O)c(Cl)c3)c3ccc(Cl)c(Cl)c3)o2)cc1` [Example 31, {[2-Chloro-4-({(3,4-dichloro-phenyl)-[5-(4-methanesulfonyl-phenyl)-oxazol-2-yl]-amino}-methyl)-phenyl]-difluoro-methyl}-phosphonic acid]: the melting point (in general, the temperature of the solid-liquid transition) was 141 to 143 °C. Further, the pIC50 (usually −log10 of the IC50, conventionally taken in molar units) in series [1] (Table 2) was 6.30 to 7.00.

As to `COP(=O)(O)C(F)(F)c1ccc(CN(c2ccc(Cl)c(Cl)c2)c2ncc(-c3ccc(S(C)(=O)=O)cc3)o2)cc1Br` [{[2-Bromo-4-({(3,4-dichloro-phenyl)-[5-(4-methanesulfonyl-phenyl)-oxazol-2-yl]-amino}-methyl)-phenyl]-difluoro-methyl]-phosphonic acid monomethyl ester], the pIC50 in series [1] (Table 1) was 4.00 to 5.00.

The molecule `CCCCCCCCCCCCCCCCOCCCOP(=O)(O)C(F)(F)c1ccc(CN(c2ccc(Cl)c(Cl)c2)c2ncc(-c3ccc(S(C)(=O)=O)cc3)o2)cc1Br` [{[2-Bromo-4-({(3,4-dichloro-phenyl)-[5-(4-methanesulfonyl-phenyl)-oxazol-2-yl]-amino}-methyl)-phenyl]-difluoro-methyl}-phosphonic acid mono-(3-hexadecyloxy-propyl) ester] gave a negative-log IC50 (pIC50) in series [1] (Table 2) of 5.00 to 6.00.

As for `CC(C)OC(=O)OC(C)OP(=O)(O)C(F)(F)c1ccc(CN(c2ccc(F)cc2)c2ncc(-c3ccc(S(C)(=O)=O)cc3)o2)cc1Br` (stereo not shown) [{[2-Bromo-4-({(4-fluoro-phenyl)-[5-(4-methanesulfonyl-phenyl)-oxazol-2-yl]-amino}-methyl)-phenyl]-difluoro-methyl}-phosphonic acid mono-(1-isopropoxycarbonyloxy-ethyl) ester], the negative logarithm of the IC50 (pIC50) in series [1] (Table 2) was 4.00 to 5.00.

`CCCCCCCCCCCCCCCCOCCCOP(=O)(O)C(F)(F)c1ccc(CN(c2ccc(F)cc2)c2ncc(-c3ccc(S(C)(=O)=O)cc3)o2)cc1Br` [{[2-Bromo-4-({(4-fluoro-phenyl)-[5-(4-methanesulfonyl-phenyl)-oxazol-2-yl]-amino}-methyl)-phenyl]-difluoro-methyl}-phosphonic acid mono-(3-hexadecyloxy-propyl) ester] gave a pIC50 in series [1] (Table 2) of 5.00 to 6.00.

On to `CS(=O)(=O)c1ccc(-c2cnc(N(Cc3ccc(C(F)(F)P(=O)(O)Oc4ccccc4)c(Br)c3)c3ccc(F)cc3)o2)cc1` [{[2-Bromo-4-({(4-fluoro-phenyl)-[5-(4-methanesulfonyl-phenyl)-oxazol-2-yl]-amino}-methyl)-phenyl]-difluoro-methyl}-phosphonic acid monophenyl ester], for which the negative-log IC50 (pIC50) in series [1] (Table 2) is 4.00 to 5.00.

The molecule `CS(=O)(=O)c1ccc(CN(Cc2ccc(C(F)(F)P(=O)(O)O)c(Br)c2)c2ncc(-c3ccc(S(C)(=O)=O)cc3)o2)cc1` [{[2-Bromo-4-({(4-methanesulfonyl-benzyl)-[5-(4-methanesulfonyl-phenyl)-oxazol-2-yl]-amino}-methyl)-phenyl]-difluoro-methyl}-phosphonic acid] had a pIC50 in series [1] (Table 2) of 6.00 to 6.30.

Regarding `CS(=O)(=O)c1ccc(-c2cnc(N(Cc3ccc(C(F)(F)P(=O)(O)O)c(Cl)c3)c3ccc(F)cc3)o2)cc1` [{[2-Chloro-4-({(4-fluoro-phenyl)-[5-(4-methanesulfonyl-phenyl)-oxazol-2-yl]-amino}-methyl)-phenyl]-difluoro-methyl}-phosphonic acid], the pIC50 in series [1] (Table 2) was 6.30 to 7.00.

In the case of `CS(=O)(=O)c1ccc(-c2cnc(N(Cc3ccc(C(F)(F)P(=O)(O)O)c(Cl)c3)c3ccccc3)o2)cc1` [{[2-Chloro-4-({(5-(4-methanesulfonyl-phenyl)-oxazol-2-yl]-phenyl-amino}-methyl)-phenyl]-difluoro-methyl}-phosphonic acid], the negative-log IC50 (pIC50) in series [1] (Table 2) is 6.30 to 7.00.
